The nature of the data set: Solubility in water. Format: physicochemical.

Regarding `O=c1ccc2nc3ccc(OCc4ccccc4)cc3oc-2c1` [7-BR, 7-benzyloxyresorufin], the solubility in water entry is “very limited solubility”.

For the origin of these results see US6632630B2, “Monooxygenase assays” (Aclara Biosciences, Inc., priority 2000, dated 2003).
